# Reference: article PMC11001683 (European Journal of Clinical Pharmacology, 2024)
# What was measured:
# [1] = Allometric scaling prediction of ACD855 elimination half-life in man; set-up: species or system human
# Protocol: (§1) The clinical efficacy, safety, and pharmacokinetics (PK) of ACD855 have been evaluated in various domestic animals for the use as a veterinary drug. […] Based on pharmacology studies in rodents and safety studies in rat and dog, the first oral dose in an initiated Phase I single ascending dose (SAD) study (EudraCT No. 2018-002320-16), in healthy volunteers was set to 1 mg. […] The study was prematurely terminated after interim PK analysis of the first cohort, and long-term follow-up of the dosed subjects was performed.
# [2] = set-up: method as in PMID 37394539; conditions: cited from earlier work
# [3] = mice; cited from earlier work
# [4] = ACD855 Phase I SAD study, cohort 1, plasma pharmacokinetics; type: in vivo; conditions: human, 1 mg oral
# Protocol: as §1
# [5] = ACD855 mutagenic/genotoxic potential
# Protocol: as §1
# [6] = ACD855 clinical signs in dogs; type: in vivo
compound,measurement,setting,value
"Cc1cc(-n2c(=O)[nH]c(=O)n(C)c2=O)ccc1Oc1ccc(S(=O)(=O)C(F)(F)F)cc1 [ACD855, Ponazuril]",predicted elimination half-life in man,[1],4.6 days
same,effect in the forced swim test model,[2],anti-depressant-like effects
same,effect in preclinical in vivo cognition models,[3],pro-cognitive effects
same,concentration at 280 days,"[4]; all subjects but one, detection limit 1 ng/mL, read-out: plasma level at 280 days",> 1 ng/mL
same,half-life,"[4]; cohort 1, healthy volunteers, read-out: elimination half-life in plasma in humans, average (converted)",68 days
same,mutagenic or genotoxic potential,[5],no indication of any mutagenic or genotoxic potential
same,notable clinical signs in dogs,[6],gastrointestinal disturbance
